In ChEMBL document CHEMBL1139210, “9,19-cyclolanostane derivatives from the roots of Actaea pachypoda” (J Nat Prod, 2007):
The source made the active and inactive calls. The rule behind the calls is not given here.

Experiments:
[1] = (§1) Inhibition of activation of human complement
HL-60 = experiment: Antioxidant activity in HL60 cells by DCFH-DA method upto 20ug/mL; assay type: functional, cell-based; conditions: Homo sapiens
Homo sapiens = species on record: Homo sapiens; experiment: as §1
Vero = experiment: Cytotoxicity against Vero cells upto 25 ug/mL by neutral red assay; assay type: cell-based; conditions: chlorocebus sabaeus
[2] = biological target: T1, Estrogen receptor (Homo sapiens) (UniProt P03372); experiment: Activity against human ERalpha expressed in recombinant yeast cells upto 500 ug/mL; assay type: cell-based
T1 sequence (whole entry): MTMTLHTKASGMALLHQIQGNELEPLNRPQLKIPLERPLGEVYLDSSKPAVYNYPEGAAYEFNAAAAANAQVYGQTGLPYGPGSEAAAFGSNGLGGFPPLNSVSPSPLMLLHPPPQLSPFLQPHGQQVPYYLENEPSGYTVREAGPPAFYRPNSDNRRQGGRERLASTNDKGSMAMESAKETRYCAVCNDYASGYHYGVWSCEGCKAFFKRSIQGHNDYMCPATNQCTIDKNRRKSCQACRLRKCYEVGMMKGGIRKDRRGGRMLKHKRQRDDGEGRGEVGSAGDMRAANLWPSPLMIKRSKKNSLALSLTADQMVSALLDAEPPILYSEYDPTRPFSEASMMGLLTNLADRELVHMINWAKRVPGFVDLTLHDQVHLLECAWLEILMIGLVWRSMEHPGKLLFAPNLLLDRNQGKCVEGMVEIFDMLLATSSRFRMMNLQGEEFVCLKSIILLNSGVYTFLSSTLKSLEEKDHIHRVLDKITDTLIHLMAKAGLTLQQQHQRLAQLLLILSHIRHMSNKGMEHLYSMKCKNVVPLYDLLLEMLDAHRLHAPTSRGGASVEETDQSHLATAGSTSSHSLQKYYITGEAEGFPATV

LLC-PK1 = experiment: Cytotoxicity against LLC-PK1 cells upto 25 ug/mL by neutral red assay; assay type: cell-based, Sus scrofa; conditions: pig
BT-549 = experiment: Cytotoxicity against BT549 cells upto 25 ug/mL by neutral red assay; assay type: cell-based; conditions: human
KB = experiment: Cytotoxicity against KB cells upto 25 ug/mL by neutral red assay; assay type: cell-based; conditions: human
SK-MEL = experiment: Cytotoxicity against SK-MEL cells upto 25 ug/mL by neutral red assay; assay type: cell-based; conditions: human
SK-OV-3 = experiment: Cytotoxicity against SKOV3 cells upto 25 ug/mL by neutral red assay; assay type: cell-based; conditions: human

| Compound | IC50 [1] | Activity (HL-60) | Activity (Homo sapiens) | Activity (Vero) | Activity [2] | Activity (LLC-PK1) | Activity (BT-549) | Activity (KB) | Activity (SK-MEL) | Activity (SK-OV-3) |
| --- | --- | --- | --- | --- | --- | --- | --- | --- | --- | --- |
| C[C@H]1[C@H](C)CC[C@]2(C(=O)O)CC[C@]3(C)C(=CC[C@@H]4[C@@]5(C)CC[C@H](O)C(C)(C)[C@@H]5CC[C@]43C)[C@H]12 [URSOLIC ACID] | 55 µM |  |  |  |  |  |  |  |  |  |
| C[C@H]1[C@H]2[C@H](C[C@@]3(C)C4=CC[C@H]5C(C)(C)[C@@H](O[C@@H]6OC[C@@H](O)[C@H](O)[C@H]6O)CC[C@@]56C[C@@]46CC[C@]23C)O[C@@]2(O[C@H]2C(C)(C)O)[C@@H]1O |  | inactive | inactive | Not Active | inactive | Not Active | Not Active | Not Active | Not Active | Not Active |
| CC1(C)CC[C@]2(C(=O)O)CC[C@]3(C)C(=CC[C@@H]4[C@@]5(C)CC[C@H](O)C(C)(C)[C@@H]5CC[C@]43C)[C@@H]2C1 [OLEANOLIC_ACID] | 78 µM |  |  |  |  |  |  |  |  |  |
| CC(=O)O[C@@H]1C[C@@]23C[C@@]24CC[C@H](O[C@@H]2OC[C@@H](O)[C@H](O)[C@H]2O)C(C)(C)[C@@H]4CC=C3[C@]2(C)C[C@@H]3O[C@@]4(O[C@H]4C(C)(C)O)[C@H](O)[C@@H](C)[C@@H]3[C@@]12C |  | inactive | inactive | Not Active | inactive | Not Active | Not Active | Not Active | Not Active | Not Active |
| CC(=O)O[C@@H]1C[C@@]23C[C@@]24CC[C@H](O)C(C)(C)[C@@H]4CC[C@H]3[C@]2(C)[C@@H](O)[C@]34O[C@H](C[C@@H](C)[C@@H]3[C@@]12C)[C@@H](C(C)(C)O)O4 | 187 µM | inactive |  | Not Active | inactive | Not Active | Not Active | Not Active | Not Active | Not Active |
| CC(=O)O[C@@H]1C[C@@]23C[C@@]24CC[C@H](O[C@@H]2OC[C@@H](O)[C@H](O)[C@H]2O)C(C)(C)[C@@H]4CCC3[C@]2(C)C[C@@H]3O[C@@]4(O[C@H]4C(C)(C)O)[C@H](O)[C@@H](C)[C@@H]3[C@@]12C (some centres undefined) |  | inactive | inactive | Not Active | inactive | Not Active | Not Active | Not Active | Not Active | Not Active |
| CC(=O)O[C@@H]1C[C@@]23C[C@@]24CC[C@H](O[C@@H]2OC[C@@H](O)[C@H](O)[C@H]2O)C(C)(C)[C@@H]4CC[C@H]3[C@]2(C)[C@@H](O)[C@]34O[C@H](C[C@@H](C)[C@@H]3[C@@]12C)[C@@H](C(C)(C)O)O4 |  | inactive | inactive | Not Active | inactive | Not Active | Not Active | Not Active | Not Active | Not Active |
| CC(=O)O[C@@H]1C[C@@]23C[C@@]24CC[C@H](O[C@@H]2OC[C@@H](O)[C@H](O)[C@H]2O)C(C)(C)[C@@H]4CC[C@H]3[C@]2(C)C[C@@H]3O[C@@]4(C[C@@H](C)[C@@H]3[C@@]12C)OC[C@]1(C)O[C@H]41 |  | inactive | inactive | Not Active | inactive | Not Active | Not Active | Not Active | Not Active | Not Active |
| C[C@@H]1C[C@H]2O[C@@]3(O[C@@H]2C(C)(C)O)[C@H](O)[C@@]2(C)[C@@H]4CC[C@H]5C(C)(C)[C@@H](O[C@@H]6OC[C@@H](O)[C@H](O)[C@H]6O)CC[C@@]56C[C@@]46CC[C@]2(C)[C@@H]13 |  | inactive | inactive | Not Active | inactive | Not Active | Not Active | Not Active | Not Active | Not Active |
| CC(=O)O[C@H](C[C@@H](C)[C@H]1C(=O)[C@H](O)[C@@]2(C)[C@@H]3CC[C@H]4C(C)(C)[C@@H](O[C@@H]5OC[C@@H](O)[C@H](O)[C@H]5O)CC[C@@]45C[C@@]35CC[C@]12C)[C@H]1OC1(C)C |  | inactive | inactive | Not Active | inactive | Not Active | Not Active | Not Active | Not Active | Not Active |
